# Laboratory results published in US20020082273A1, “Agents for use in the treatment of alzheimer's disease” (priority 1998, published 2002).
# Marks after values point to notes of the source that are not given here.
# Assays:
# [1] = tested on: Aβ deposits of AD-affected brain; assay: Extraction (solubilization) of Aβ from post-mortem AD brain tissue homogenates, western blot densitometry; type: biochemical, human; conditions: for Effect of Chelators upon extraction of Aβ (% change from control): mean n = 6 AD brain samples, above PBS extraction alone
# Description: Identical regions of frontal cortex (0.5 g) from post-mortem brains of individuals with AD, as well as non-AD conditions, were homogenized in TBS, […] ±metal chelators.
# 0.5 g of prefrontal cortex was dissected and homogenized in PBS ±chelator as indicated. The homogenate was then centrifuged (100,000 g) and the supernatant removed, and a sample taken for western blot assay using anti-Aβ specific antibodies after Tricine PAGE. Densitometry was performed against synthetic peptide standards.
# Densitometry of Aβ western blots (FIGS. 19A-19C) was performed for a series of 6 AD brain samples homogenized in the presence of chelators as indicated.
# Next the ability of clioquinol to extract Aβ deposits from human brain was examined. […] Fragments of prefrontal cortex from individual post-mortem samples with the histopathological diagnosis of AD were homogenized in PBS, pH 7.4, and then pelleted after centrifugation. The pellets were then washed with agitation twice for 30 minutes, 4° C., with PBS or PBS containing clioquinol (100% =0.8 μM clioquinol). The suspension was then pelleted (10,000 g for 30 minutes) and the supernatant removed (S1) for western blot analysis using Aβ-specific antibodies (illustrated). The pellet was treated a second time in this experiment with agitation and centrifugation, and the second supernatant (S2) analysed.
# Soluble Aβ (ng/g tissue) was determined as described. Total Aβ was determined following formic acid extraction of otherwise untreated tissue.
# (§1) Suitable quantities of gray matter from each subject were minced to serve as pools of homogenous tissue. […] To obtain the soluble fraction, the homogenates were centrifuged at 100,000× g for 30 min (Beckman J180, Beckman instruments, Fullerton, California) and the supernatant collected in 1 ml aliquots and stored on ice or immediately frozen at −70° C. In each experiment, all protein was precipitated from 1 ml of supernatant from each treatment group using 1:5 ice cold 10% trichloracetic acid and pelleted in a bench top microfuge (Heraeus, Osteroder, Germany) at 10,000× g. The remaining pellet was frozen at −70° C.
# Precipitated protein was subjected to SDS polyacrylamide gel electrophoresis (SDS-PAGE) on Novex pre-cast 10-20% Tris-Tricine gels followed by Western transfer onto 0.2 μm nitrocellulose membrane (Biorad, Hercules, Calif.). […] Each gel included two or more lanes containing known quantities of synthetic Aβ which served as internal reference standards. Blot images were captured by a Relisys scanner with transparency adapter (Teco Information Systems, Taiwan, ROC) and densitometry conducted using the NIH Image 1.6 program (National Institutes for Health, USA. Modified for PC by Scion Corporation, Frederick, Md.), calibrated using a step diffusion chart. For quantitation of Aβ in brain extracts, the internal reference standards of synthetic Aβ were utilized to produce standard curves from which values were interpolated.
# [2] = tested on: Aβ deposits of age-matched control brain; assay: Extraction of Aβ from age-matched non-AD control brain tissue; type: biochemical, human; conditions: chelator 2 mM
# Description: as §1
# Precipitated protein was subjected to SDS polyacrylamide gel electrophoresis (SDS-PAGE) on Novex pre-cast 10-20% Tris-Tricine gels followed by Western transfer onto 0.2 μm nitrocellulose membrane (Biorad, Hercules, Calif.). Aβ was detected using the WO2, G210 or G211 monoclonal antibodies (Ida, N., et al., J. Biol. Chem., 271:22908 (1996)) in combination with HRP-conjugated rabbit anti-mouse IgG (Dako, Denmark), and visualized using chemiluminescence (ECL, Amersham Life Science, Little Chalfont, Buckinghamshire, UK). Each gel included two or more lanes containing known quantities of synthetic Aβ which served as internal reference standards. Blot images were captured by a Relisys scanner with transparency adapter (Teco Information Systems, Taiwan, ROC) and densitometry conducted using the NIH Image 1.6 program (National Institutes for Health, USA. Modified for PC by Scion Corporation, Frederick, Md.), calibrated using a step diffusion chart. For quantitation of Aβ in brain extracts, the internal reference standards of synthetic Aβ were utilized to produce standard curves from which values were interpolated.
# [3] = Residual metals in post-centrifugation pellets of brain homogenates (ICP-AES); type: biochemical, human; set-up: Residual Metal Levels, Mg: unit not given here; conditions: for Residual Al in extracted pellet / Residual Ca in extracted pellet / Residual Cu in extracted pellet / Residual Fe in extracted pellet / Residual Mg in extracted pellet / Residual Zn in extracted pellet: Table 6
# [4] = cited from earlier work
# [5] = cited from earlier work; remark: listed apart in the source
# [6] = Table 1; K=[ML]/[M][L]; cited from earlier work
# [7] = cited from earlier work; remark: listed apart in the source
# [8] = cited from earlier work; remark: listed apart in the source
# [9] = Table 1; K=[ML]/[M][L]; cited from earlier work; remark: listed apart in the source
# [10] = Table 1; K=[ML]/[M][L]; cited from earlier work; remark: listed apart in the source
# [11] = Table 3, TPEN 0.1 mM, AD (n=6) and healthy controls (n=4)
# [12] = Table 7, 10 AD specimens, 0.1 mM TPEN
compound,measurement,setting,value
"c1ccc(CN(CCN(Cc2ccccn2)Cc2ccccn2)Cc2ccccn2)nc1 [TPEN, N,N,N′,N′-tetrakis [2-pyridyl-methyl] ethylenediamine]",Effect of Chelators upon extraction of Aβ (% change from control),[1]; 0.1 mM chelator,182%
same,Effect of Chelators upon extraction of Aβ (% change from control),[1]; 2.0 mM chelator,241%
same,mean increase of Aβ solubilization over PBS alone,"[1]; 6 AD brains, 0.1 or 2.0 mM",around 2 fold
same,Extractable Aβ,"[1]; AD subject 1, chelator 2 mM",0.21 µg/g
same,Extractable Aβ (% of total),"[1]; AD subject 1, chelator 2 mM",(0.2) %
same,Extractable Aβ,"[1]; AD subject 2, chelator 2 mM",3.40 µg/g
same,Extractable Aβ (% of total),"[1]; AD subject 2, chelator 2 mM",(4.4) %
same,Extractable Aβ,"[1]; AD subject 3, chelator 2 mM",1.80 µg/g
same,Extractable Aβ (% of total),"[1]; AD subject 3, chelator 2 mM",(2.25) %
same,Extractable Aβ,"[1]; AD subject 4, chelator 2 mM",5.50 µg/g
same,Extractable Aβ (% of total),"[1]; AD subject 4, chelator 2 mM",(9.2) %
same,Extractable Aβ,"[1]; AD subject 5, chelator 2 mM",5.00 µg/g
same,Extractable Aβ (% of total),"[1]; AD subject 5, chelator 2 mM",(3.5) %
same,Extractable Aβ,"[1]; AD subject 6, chelator 2 mM",0.28 µg/g
same,Extractable Aβ (% of total),"[1]; AD subject 6, chelator 2 mM",(1.75) %
same,"Extractable Aβ (% of total), X (mean)","[1]; AD subjects 1-6, chelator 2 mM",(4.6) %
same,"Extractable Aβ, X (mean)","[1]; AD subjects 1-6, chelator 2 mM",2.73 µg/g
same,X C/PBS (mean chelator / PBS),"[1]; AD tissue, chelator 2 mM",2.60
same,efficiency in extracting Aβ,"[1]; neutral saline buffer, TPEN 5 μM",highly efficient
same,Extractable Aβ,[2]; AC subject 1,0.22 µg/g
same,Extractable Aβ (% of total),[2]; AC subject 1,(32.0) %
same,Extractable Aβ,[2]; AC subject 2,0.38 µg/g
same,Extractable Aβ (% of total),[2]; AC subject 2,(9.0) %
same,Extractable Aβ,[2]; AC subject 3,0.26 µg/g
same,Extractable Aβ (% of total),[2]; AC subject 3,(9.7) %
same,Extractable Aβ,[2]; AC subject 4,0.09 µg/g
same,Extractable Aβ (% of total),[2]; AC subject 4,(3.0) %
same,Extractable Aβ,[2]; AC subject 5,1.06 µg/g
same,Extractable Aβ (% of total),[2]; AC subject 5,(29.5) %
same,"Extractable Aβ (% of total), X (mean)",[2]; AC subjects 1-5,(16.7) %
same,"Extractable Aβ, X (mean)",[2]; AC subjects 1-5,0.40 µg/g
same,X C/PBS (mean chelator / PBS),[2]; age-matched control tissue,1.6
same,Residual Al in pellet,[3]; [11],65 mg/kg
same,Residual Ca in pellet,[3]; [11],(210) mg/kg
same,Residual Cu in pellet,[3]; [11],9.8 mg/kg
same,Residual Fe in pellet,[3]; [11],239 mg/kg
same,Residual Mg in pellet,[3]; [11],230 mg/kg
same,Residual Zn in pellet,[3]; [11],33.2* mg/kg
same,Residual Al in extracted pellet,[3]; chelator 0.001 mM,34 mg/kg
same,Residual Ca in extracted pellet,[3]; chelator 0.001 mM,490 mg/kg
same,Residual Cu in extracted pellet,[3]; chelator 0.001 mM,12 mg/kg
same,Residual Fe in extracted pellet,[3]; chelator 0.001 mM,512 mg/kg
same,Residual Mg in extracted pellet,[3]; chelator 0.001 mM,192 mg/kg
same,Residual Zn in extracted pellet,[3]; chelator 0.001 mM,42 mg/kg
same,Residual Al in extracted pellet,[3]; chelator 0.004 mM,22 mg/kg
same,Residual Ca in extracted pellet,[3]; chelator 0.004 mM,322 mg/kg
same,Residual Cu in extracted pellet,[3]; chelator 0.004 mM,10 mg/kg
same,Residual Fe in extracted pellet,[3]; chelator 0.004 mM,317 mg/kg
same,Residual Mg in extracted pellet,[3]; chelator 0.004 mM,147 mg/kg
same,Residual Zn in extracted pellet,[3]; chelator 0.004 mM,28 mg/kg
same,Residual Al in extracted pellet,[3]; chelator 0.04 mM,22 mg/kg
same,Residual Ca in extracted pellet,[3]; chelator 0.04 mM,956 mg/kg
same,Residual Cu in extracted pellet,[3]; chelator 0.04 mM,10 mg/kg
same,Residual Fe in extracted pellet,[3]; chelator 0.04 mM,322 mg/kg
same,Residual Mg in extracted pellet,[3]; chelator 0.04 mM,201 mg/kg
same,Residual Zn in extracted pellet,[3]; chelator 0.04 mM,22 mg/kg
same,Residual Al in extracted pellet,[3]; chelator 0.1 mM,60 mg/kg
same,Residual Ca in extracted pellet,[3]; chelator 0.1 mM,708 mg/kg
same,Residual Cu in extracted pellet,[3]; chelator 0.1 mM,12 mg/kg
same,Residual Fe in extracted pellet,[3]; chelator 0.1 mM,389 mg/kg
same,Residual Mg in extracted pellet,[3]; chelator 0.1 mM,200 mg/kg
same,Residual Zn in extracted pellet,[3]; chelator 0.1 mM,21 mg/kg
same,Residual Al in extracted pellet,[3]; chelator 2.0 mM,148 mg/kg
same,Residual Ca in extracted pellet,[3]; chelator 2.0 mM,419 mg/kg
same,Residual Cu in extracted pellet,[3]; chelator 2.0 mM,11 mg/kg
same,Residual Fe in extracted pellet,[3]; chelator 2.0 mM,376 mg/kg
same,Residual Mg in extracted pellet,[3]; chelator 2.0 mM,200 mg/kg
same,Residual Zn in extracted pellet,[3]; chelator 2.0 mM,19 mg/kg
same,Residual Al in extracted pellet,[3]; chelator 5.0 mM,16 mg/kg
same,Residual Ca in extracted pellet,[3]; chelator 5.0 mM,377 mg/kg
same,Residual Cu in extracted pellet,[3]; chelator 5.0 mM,10 mg/kg
same,Residual Fe in extracted pellet,[3]; chelator 5.0 mM,307 mg/kg
same,Residual Mg in extracted pellet,[3]; chelator 5.0 mM,205 mg/kg
same,Residual Zn in extracted pellet,[3]; chelator 5.0 mM,17 mg/kg
same,"Residual Metal Levels, Al",[3]; [12],65
same,"Residual Metal Levels, Ca",[3]; [12],210
same,"Residual Metal Levels, Cu",[3]; [12],9.8
same,"Residual Metal Levels, Fe",[3]; [12],239
same,"Residual Metal Levels, Mg",[3]; [12],230
same,"Residual Metal Levels, Zn",[3]; [12],33.2
same,"LogK, Ca","[4]; Table 1, K=[ML]/[M][L]",3.0
same,"Stability constant logK10, Ca","[4]; Table 5, NIST database",3
same,"LogK, Cu","[5]; Table 1, K=[ML]/[M][L]",20.2
same,"Stability constant logK10, Cu","[5]; Table 5, NIST database",20.2
same,"LogK, Mg",[6],0
same,"LogK, Fe","[7]; Table 1, K=[ML]/[M][L]",14.4
same,"Stability constant logK10, Fe","[7]; Table 5, NIST database",14.4
same,"LogK, Zn","[8]; Table 1, K=[ML]/[M][L]",15.4
same,"Stability constant logK10, Zn","[8]; Table 5, NIST database",15.4
same,"LogK, Al",[9],0
same,"LogK, Co",[10],0
